In brackets after ≈: the same amount, converted by molar mass. Read-outs that look alike come from different tables or passages of the source.
Columns and labels:
human topoIIα = biological target: T1, human topoIIα (Homo sapiens, UniProt P11388); assay: topoII decatenation assay (Inspiralis); assay type: biochemical
T1 construct: purchased Inspiralis
Protocol: We measured the inhibitor activity of our new compounds against human topoIIα, using a topoII decatenation assay (Table 1).
The activity of topoIIα was measured using a decatenation assay (Inspiralis) following the manufacturer’s instructions. Compounds were dissolved in DMSO and used at a concentration ranging from 200 to 1 μM. Final DMSO concentration in the assay was ≤1%. Reaction mixtures were incubated for 30 min at 37 °C and terminated with STEB buffer (40% (w/v) sucrose, 100 mM Tris-HCl, pH 8, 1 mM EDTA, 0.5 mg/mL bromophenol blue). Reaction products were resolved by electrophoresis in 1% agarose gels containing SYBR Safe DNA stain (Invitrogen), scanned, and quantified using the ChemiDoc system (BioRad). IC50 values were obtained with GraphPad Prism software (version 5.03) using the band intensities of the dose–response gels. Values are reported as the mean ± SD of two independent experiments.

DU145 cells = assay: cell viability MTT assay, DU145; assay type: cell-based, human; conditions: mean ± SD of two experiments, read-out: DU145 antiproliferative activity IC50
Protocol: (§1) The antiproliferative activity of all compounds was evaluated in (i) DU145, an androgen-independent prostate cancer cell line; (ii) HeLa, a cervical cancer cell line; and (iii) A549, a lung adenocarcinoma cell line (Table 1). […] Undoubtedly, this preliminary cytotoxicity data will need further characterization, also in relation to the in vitro activity of these compounds.
(§2) Human cancer cell lines A549 (lung adenocarcinoma, ATCC CCL-185), DU-145 (androgen-independent prostate cancer, ATCC HTB-81), and HeLa (cervical carcinoma, ATCC CCL-2) were obtained from ATCC. Cells were routinely grown in minimal essential medium containing Eagle’s salts and L-glutamine supplemented with 10% heat-inactivated FBS in a humidified atmosphere of 5% CO2 at 37 °C. To assess the antiproliferative activity of the compounds, cells were seeded at a density of 2500 cells/well (HeLa) or 5000 cells/well (A549, DU-145) in 96-well plates, and cell viability was measured using the MTT assay as described previously.[39] Values are reported as the mean ± SD of two independent experiments.

HeLa cells = assay: cell viability MTT assay, HeLa; assay type: cell-based, human; conditions: HeLa cervical cancer cells, mean ± SD of two experiments, read-out: HeLa antiproliferative activity IC50
Protocol: as §1, §2

A549 cells = assay: cell viability MTT assay, A549; assay type: cell-based, human; conditions: mean ± SD of two experiments, read-out: A549 antiproliferative activity IC50
Protocol: as §1, §2

[1] = aqueous kinetic solubility; assay type: physicochemical; conditions: PBS, pH 7.4, PBS pH 7.4, target 250 µM, 2.5% DMSO, 25°C
Protocol: 1. In vitro m etabolic stabili ty
In vitro microsomial stability. 10mM DMSO stock solution of test compound was pre-incubated at 37 °C for 15min with mouse liver microsomes added 0.1M Tris-HCl buffer (pH 7.4). The final concentration was 4.6µM. After pre -incubation, the co-factors (NADPH, G6P, G6PDH and MgCl2 pre-dissolved in 0.1M Tris-HCl) were added to the incubation mixture and the incubation was continued at 37 °C for 1h. At each time point (0, 5, 15, 30, 60min), 30µL of incubation mixture was diluted with 200µL cold CH 3CN spiked with 200n M of internal standard, followed by centrifugation at 3500g for 15min. The supernatant was further diluted with H2O (1:1) for analysis. The concentration of test compound was quantified by LC/MS-MS on a Waters ACQUITY UPLC/M S TQD system consisting of a TQD (Triple Quadrupole Detector) Mass Spectrometer equipped with an Electrospray Ionization interface. The analyses were run on an ACQUITY UPLC BEH C18 (50x2.1mmID, particle size 1.7µm) with a VanGuard BEH C18 pre -column (5x2.1mmID, particle size 1.7µm) at 40°C, using 0.1% HCOOH in H 2O (A) and 0.1% HCOOH in CH 3CN (B) as mobile phase. Electrospray ionization (ESI) was app lied in positive mode . The percentage of test compound remaining at each time point relative to t=0 was calculated. The half -lives (t½) were determined by an one-phase decay equation using a non -linear regression of compound concentration versus time.
In vitro Plasma Stability. 10mM DMSO stock solution of test compound was diluted 50 -fold with DMSO-H2O (1:1) and incubated at 37 °C for 2 h with mouse plasma added 5% DMSO (pre-heated at 37 °C for 10 min). The final concentration was 2µM. At each time point (0, 5, 15, 30, 60, 120min), 50 µL of incubation mixture was diluted with 200µL cold CH3CN spiked with 200nM of internal standard, followed by centrifugation at 3500g for 20min. The supernatant was further diluted with H2O (1:1) for analysis. The concentration of test compound was quantified by LC/MS-MS on a Waters ACQUITY UPLC/MS TQD system consisting of a TQD (Triple Quadrupole Detector) Mass Spectrometer equipped with an Electrospray Ionization interface. The analyses were run on an ACQUITY UPLC BEH C18 (50x2.1mmID, particle size 1.7µm) with a VanGuard BEH C18 pre - column (5x2.1mmID, particle size 1.7µm) at 40°C, using 0.1% HCOOH in H2O (A) and 0.1% HCOOH in CH3CN (B) as mobile phase. Electrospray ionization (ESI) was applied in positive mode.
The response factors, calculated on the basis of the internal standard peak area, were plotted over time. When possible, response vs. time profiles were fitted with Prism (GraphPad Software, Inc., USA) to estimate compounds half-life in plasma.
2. Aqueous ki netic solu bili ty
The aqueous kinetic solubility was determined from a 10mM DMSO stock solution of test compound in Phosphate Buffered Saline (PBS) at pH 7.4. The study was performed by incubation of an aliquot of 10mM DMSO stock solution in PBS (pH 7.4) at a target concentration of 250µM resulting in a final concentration of 2.5% DMSO. The incubation was carried out under shaking at 25°C for 24h followed by centrifugation at 21.100g for 30min. The supernatant was analyzed by UPLC/MS for the quantification of dissolved compound by UV at a specific wavelength (215nm).
The analyses were performed on a Waters ACQUITY UPLC/MS SQD system consisting of a SQD (Single Quadrupole Detector) Mass Spectrometer equipped with Electrospray Ionization interface.
The analyses were run on an ACQUITY UPLC BEH C18 column (50x2.1mmID, particle size 1.7µm) with a VanGuard BEH C18 pre-column (5x2.1mmID, particle size 1.7µm), using 10mM NH4OAc in H2O at pH 5 adjusted with AcOH (A) and 10mM NH4OAc in MeCN-H2O (95:5) at pH 5 (B) as […]

[2] = human topoIIα decatenation assay, mean ± SD of two independent experiments, read-out: IC50
[3] = Homo sapiens, DU-145, DU145 prostate cancer cells
[4] = Homo sapiens, A549, A549 lung adenocarcinoma cells
[5] = topoIIα decatenation IC50 versus ARN16267

T1 sequence (P11388 whole entry): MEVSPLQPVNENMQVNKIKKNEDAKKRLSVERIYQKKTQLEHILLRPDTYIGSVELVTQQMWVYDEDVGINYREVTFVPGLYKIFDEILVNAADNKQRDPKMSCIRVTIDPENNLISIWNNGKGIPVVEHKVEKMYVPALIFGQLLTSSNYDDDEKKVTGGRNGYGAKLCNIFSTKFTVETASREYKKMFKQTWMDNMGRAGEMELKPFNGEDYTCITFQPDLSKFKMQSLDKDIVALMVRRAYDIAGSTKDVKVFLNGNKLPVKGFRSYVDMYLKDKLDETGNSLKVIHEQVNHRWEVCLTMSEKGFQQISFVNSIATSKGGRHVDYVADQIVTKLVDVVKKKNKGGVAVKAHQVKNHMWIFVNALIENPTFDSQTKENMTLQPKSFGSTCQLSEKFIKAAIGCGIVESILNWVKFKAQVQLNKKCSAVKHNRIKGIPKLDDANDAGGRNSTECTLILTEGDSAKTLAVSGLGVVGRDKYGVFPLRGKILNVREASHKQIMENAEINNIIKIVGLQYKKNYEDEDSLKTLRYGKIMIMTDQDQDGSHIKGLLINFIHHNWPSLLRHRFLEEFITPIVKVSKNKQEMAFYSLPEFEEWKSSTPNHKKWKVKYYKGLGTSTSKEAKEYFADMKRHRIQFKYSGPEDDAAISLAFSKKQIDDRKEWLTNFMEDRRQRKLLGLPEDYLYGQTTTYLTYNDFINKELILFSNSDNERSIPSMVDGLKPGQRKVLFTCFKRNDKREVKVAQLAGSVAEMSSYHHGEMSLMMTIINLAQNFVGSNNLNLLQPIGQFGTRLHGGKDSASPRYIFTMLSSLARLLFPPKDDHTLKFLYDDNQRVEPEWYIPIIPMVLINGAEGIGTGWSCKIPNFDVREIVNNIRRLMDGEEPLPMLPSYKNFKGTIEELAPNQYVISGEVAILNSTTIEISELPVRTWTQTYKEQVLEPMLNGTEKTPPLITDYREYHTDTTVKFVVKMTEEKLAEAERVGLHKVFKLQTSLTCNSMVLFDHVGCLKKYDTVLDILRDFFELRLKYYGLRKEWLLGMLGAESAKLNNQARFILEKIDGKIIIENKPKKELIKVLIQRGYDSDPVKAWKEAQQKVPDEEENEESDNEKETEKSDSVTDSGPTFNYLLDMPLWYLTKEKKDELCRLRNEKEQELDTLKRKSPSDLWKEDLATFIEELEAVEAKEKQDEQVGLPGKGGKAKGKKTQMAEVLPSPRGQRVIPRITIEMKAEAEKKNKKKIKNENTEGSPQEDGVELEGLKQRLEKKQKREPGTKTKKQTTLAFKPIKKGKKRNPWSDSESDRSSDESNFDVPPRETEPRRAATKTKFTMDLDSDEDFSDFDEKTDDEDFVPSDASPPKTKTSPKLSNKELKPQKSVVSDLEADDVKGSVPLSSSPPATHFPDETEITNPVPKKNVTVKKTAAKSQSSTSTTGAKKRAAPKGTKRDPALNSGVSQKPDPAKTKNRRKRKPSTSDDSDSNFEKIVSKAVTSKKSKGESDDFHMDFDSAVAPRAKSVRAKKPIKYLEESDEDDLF

SMILES: O=C(Nc1cccc([N+](=O)[O-])c1)c1c(O)n(-c2ccccc2)c(=S)n(-c2ccccc2)c1=O [3d, 6-Hydroxy-N-(3-nitrophenyl)-4-oxo-1,3-diphenyl-2-thioxo-1,2,3,4-tetrahydropyrimidine-5-carboxamide]
- IC50 (human topoIIα; [2]): 10.2 ± 4.6 µM
- IC50 (DU145 cells; [3]): 6.9 ± 0.3 µM
- IC50 (HeLa cells; Homo sapiens, HeLa): 11.9 ± 2.6 µM
- IC50 (A549 cells; [4]): 18.5 ± 3.1 µM

SMILES: COc1cccc(CCNC(=O)c2c(O)n(-c3ccccc3)c(=S)n(-c3ccccc3)c2=O)c1 [5e, 6-Hydroxy-N-(3-methoxyphenethyl)-4-oxo-1,3-diphenyl-2-thioxo-1,2,3,4-tetrahydropyrimidine-5-carboxamide]
- IC50 (human topoIIα; [2]): 15.8 ± 3.4 µM
- IC50 (DU145 cells; DU145 prostate cancer cells): 3.3 ± 2.5 µM
- IC50 (DU145 cells; [3]): < 5 µM
- IC50 (HeLa cells): 3.4 ± 0.1 µM
- IC50 (HeLa cells; Homo sapiens, HeLa): < 5 µM
- solubility kinetic at 24 h [1]: 122 µM (≈ 57.8 µg/mL)
- IC50 (A549 cells; A549 lung adenocarcinoma cells): 3.2 ± 1.2 µM
- IC50 (A549 cells; [4]): < 5 µM

SMILES: COc1cc(CNC(=O)c2c(O)n(-c3ccccc3)c(=S)n(-c3ccccc3)c2=O)cc(OC)c1O [compound 6, 6-Hydroxy-N-(4-hydroxy-3,5-dimethoxybenzyl)-4-oxo-1,3-diphenyl-2-thioxo-1,2,3,4-tetrahydropyrimidine-5-carboxamide]
- IC50 (human topoIIα): > 100 µM
- IC50 (human topoIIα; [2]): 108 ± 10.1 µM
- fold drop in activity compared to ARN16267 (human topoIIα; [5]): 7 fold
- IC50 (DU145 cells; [3]): 8.8 ± 0.3 µM
- IC50 (HeLa cells; Homo sapiens, HeLa): 19.1 ± 4.8 µM
- IC50 (A549 cells; [4]): 14.7 ± 0.3 µM

SMILES: COc1cc(CCNC(=O)c2c(O)n(-c3ccccc3)c(=S)n(-c3ccccc3)c2=O)cc(OC)c1O [compound 7, 6-Hydroxy-N-(4-hydroxy-3,5-dimethoxyphenethyl)-4-oxo-1,3-diphenyl-2-thioxo-1,2,3,4-tetrahydropyrimidine-5-carboxamide]
- IC50 (human topoIIα; [2]): 74.4 ± 13.6 µM
- IC50 (DU145 cells; [3]): 13.9 ± 7.6 µM
- IC50 (HeLa cells; Homo sapiens, HeLa): 13.3 ± 1.7 µM
- IC50 (A549 cells; [4]): 14.8 ± 1.4 µM

SMILES: COc1cccc(/C=C/CNC(=O)c2c(O)n(-c3ccccc3)c(=S)n(-c3ccccc3)c2=O)c1 [5f, (E)-6-Hydroxy-N-(3-(3-methoxyphenyl)allyl)-4-oxo-1,3-diphenyl-2-thioxo-1,2,3,4-tetrahydropyrimidine-5-carboxamide]
- IC50 (human topoIIα; [2]): 8.3 ± 2.3 µM
- fold increased activity compared to ARN16267 (human topoIIα; [5]): 2 fold
- IC50 (DU145 cells; [3]): 5 ± 2.9 µM
- IC50 (HeLa cells; Homo sapiens, HeLa): 5.5 ± 1.1 µM
- IC50 (A549 cells; [4]): 4.4 ± 0.6 µM

SMILES: COc1cc(/C=C/CNC(=O)c2c(O)n(-c3ccccc3)c(=S)n(-c3ccccc3)c2=O)cc(OC)c1O [compound 8, (E)-6-Hydroxy-N-(3-(4-hydroxy-3,5-dimethoxyphenyl)allyl)-4-oxo-1,3-diphenyl-2-thioxo-1,2,3,4-tetrahydropyrimidine-5-carboxamide]
- IC50 (human topoIIα; [2]): 28 ± 4.4 µM
- IC50 (DU145 cells; [3]): 9.8 ± 2.1 µM
- IC50 (HeLa cells; Homo sapiens, HeLa): 9.3 ± 0.2 µM
- IC50 (A549 cells; [4]): 9.5 ± 1.5 µM

SMILES: CC(F)(F)c1cccc(NC(=O)c2c(O)n(-c3ccccc3)c(=S)n(-c3ccccc3)c2=O)c1 [3h, N-(3-(1,1-Difluoroethyl)phenyl)-6-hydroxy-4-oxo-1,3-diphenyl-2-thioxo-1,2,3,4-tetrahydropyrimidine-5-carboxamide]
- IC50 (human topoIIα; [2]): 9.2 ± 0.2 µM
- IC50 (DU145 cells; DU145 prostate cancer cells): 2.7 ± 2.5 µM
- IC50 (DU145 cells; [3]): < 5 µM
- IC50 (HeLa cells): 2.5 ± 0.4 µM
- IC50 (HeLa cells; Homo sapiens, HeLa): < 5 µM
- solubility kinetic at 24 h [1]: 6 µM (≈ 2.88 µg/mL)
- IC50 (A549 cells; A549 lung adenocarcinoma cells): 3 ± 1.1 µM
- IC50 (A549 cells; [4]): < 5 µM

SMILES: COc1cccc(CNC(=O)c2c(O)n(-c3ccccc3)c(=S)n(-c3ccccc3)c2=O)c1 [5d, 6-Hydroxy-N-(3-methoxybenzyl)-4-oxo-1,3-diphenyl-2-thioxo-1,2,3,4-tetrahydropyrimidine-5-carboxamide]
- IC50 (human topoIIα; [2]): 22.5 ± 7.2 µM
- fold drop in activity compared to ARN16267 (human topoIIα; [5]): 1.4 fold
- IC50 (DU145 cells; [3]): 7.7 ± 0.1 µM
- IC50 (HeLa cells; Homo sapiens, HeLa): 6.1 ± 1.1 µM
- IC50 (A549 cells; [4]): 4.8 ± 0.4 µM

SMILES: CCOc1cccc(NC(=O)c2c(O)n(-c3ccccc3)c(=S)n(-c3ccccc3)c2=O)c1 [3a, N-(3-Ethoxyphenyl)-6-hydroxy-4-oxo-1,3-diphenyl-2-thioxo-1,2,3,4-tetrahydropyrimidine-5-carboxamide]
- IC50 (human topoIIα; [2]): 12.4 ± 3.7 µM
- IC50 (DU145 cells; [3]): 5.7 ± 1.4 µM
- IC50 (HeLa cells; Homo sapiens, HeLa): 5.2 ± 0.9 µM
- IC50 (A549 cells; [4]): 3.6 ± 0.4 µM

SMILES: O=C(Nc1cccc(F)c1)c1c(O)n(-c2ccccc2)c(=S)n(-c2ccccc2)c1=O [3e, N-(3-Fluorophenyl)-6-hydroxy-4-oxo-1,3-diphenyl-2-thioxo-1,2,3,4-tetrahydropyrimidine-5-carboxamide]
- IC50 (human topoIIα; [2]): 15.1 ± 4.2 µM
- IC50 (DU145 cells; [3]): 5.6 ± 0.6 µM
- IC50 (HeLa cells; Homo sapiens, HeLa): 5.6 ± 0.5 µM
- IC50 (A549 cells; [4]): 4.1 ± 0.2 µM

SMILES: CC(C)Oc1cccc(NC(=O)c2c(O)n(-c3ccccc3)c(=S)n(-c3ccccc3)c2=O)c1 [3b, 6-Hydroxy-N-(3-isopropoxyphenyl)-4-oxo-1,3-diphenyl-2-thioxo-1,2,3,4-tetrahydropyrimidine-5-carboxamide]
- IC50 (human topoIIα; [2]): 9.7 ± 2.6 µM
- IC50 (DU145 cells; [3]): 5.5 ± 0.1 µM
- IC50 (HeLa cells; Homo sapiens, HeLa): 4.2 ± 0.3 µM
- solubility kinetic at 24 h [1]: 34 µM (≈ 16.1 µg/mL)
- IC50 (A549 cells; [4]): 3 ± 0.3 µM

SMILES: COc1cc(NC(=O)c2c(O)n(-c3ccccc3)c(=S)n(-c3ccccc3)c2=O)ccc1F [3j]
- IC50 (human topoIIα; [2]): 22.5 ± 5.8 µM
- IC50 (DU145 cells; [3]): 7.8 ± 0.6 µM
- IC50 (HeLa cells; Homo sapiens, HeLa): 5.3 ± 1 µM
- IC50 (A549 cells; [4]): 4.6 ± 0.1 µM

SMILES: N#Cc1cccc(NC(=O)c2c(O)n(-c3ccccc3)c(=S)n(-c3ccccc3)c2=O)c1 [3c, N-(3-Cyanophenyl)-6-hydroxy-4-oxo-1,3-diphenyl-2-thioxo-1,2,3,4-tetrahydropyrimidine-5-carboxamide]
- IC50 (human topoIIα; [2]): 14.4 ± 3.8 µM
- IC50 (DU145 cells; [3]): 14.4 ± 4.1 µM
- IC50 (HeLa cells; Homo sapiens, HeLa): 12.4 ± 1.3 µM
- IC50 (A549 cells; [4]): 16.9 ± 0.3 µM
